Values of other authors in patent US20190000850A1, “COMBINATION CANCER THERAPY” (The Regents of the University of California, priority 2015, published 2019).

Tests used:
Chk1 = biological target: T1, Chk1 (Homo sapiens, UniProt O14757); conditions: read-out: IC50 against primary target (Chk1); cited from earlier work
T1 sequence (O14757 1-476): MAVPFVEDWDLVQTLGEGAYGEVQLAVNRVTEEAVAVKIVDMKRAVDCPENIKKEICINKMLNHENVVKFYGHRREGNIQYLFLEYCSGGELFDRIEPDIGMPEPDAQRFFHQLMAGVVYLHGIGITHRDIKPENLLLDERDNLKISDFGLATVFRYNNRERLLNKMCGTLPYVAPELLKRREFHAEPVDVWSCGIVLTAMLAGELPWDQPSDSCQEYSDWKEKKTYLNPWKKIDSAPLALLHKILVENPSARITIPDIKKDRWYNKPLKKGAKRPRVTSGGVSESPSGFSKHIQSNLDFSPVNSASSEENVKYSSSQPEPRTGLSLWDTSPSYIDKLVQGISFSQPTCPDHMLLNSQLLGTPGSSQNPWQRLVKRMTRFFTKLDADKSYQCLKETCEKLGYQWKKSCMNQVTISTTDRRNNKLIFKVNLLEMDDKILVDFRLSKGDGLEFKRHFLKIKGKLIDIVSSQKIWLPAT

PKC = conditions: cited from earlier work
cdc2 = cdc2 (Homo sapiens, UniProt P06493); conditions: cited from earlier work
Sequence of cdc2 (P06493 whole entry, species assumed): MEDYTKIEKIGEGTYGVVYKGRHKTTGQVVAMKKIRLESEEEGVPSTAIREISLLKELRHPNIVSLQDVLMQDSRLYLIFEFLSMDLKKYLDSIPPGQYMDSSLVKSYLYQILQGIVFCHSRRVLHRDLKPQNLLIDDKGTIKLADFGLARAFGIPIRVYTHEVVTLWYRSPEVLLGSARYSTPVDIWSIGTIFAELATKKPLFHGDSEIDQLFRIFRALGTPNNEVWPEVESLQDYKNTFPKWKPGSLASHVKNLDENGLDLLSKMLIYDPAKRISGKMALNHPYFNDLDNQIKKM
Sequence of cdc2 (P14635 whole entry partner, species assumed): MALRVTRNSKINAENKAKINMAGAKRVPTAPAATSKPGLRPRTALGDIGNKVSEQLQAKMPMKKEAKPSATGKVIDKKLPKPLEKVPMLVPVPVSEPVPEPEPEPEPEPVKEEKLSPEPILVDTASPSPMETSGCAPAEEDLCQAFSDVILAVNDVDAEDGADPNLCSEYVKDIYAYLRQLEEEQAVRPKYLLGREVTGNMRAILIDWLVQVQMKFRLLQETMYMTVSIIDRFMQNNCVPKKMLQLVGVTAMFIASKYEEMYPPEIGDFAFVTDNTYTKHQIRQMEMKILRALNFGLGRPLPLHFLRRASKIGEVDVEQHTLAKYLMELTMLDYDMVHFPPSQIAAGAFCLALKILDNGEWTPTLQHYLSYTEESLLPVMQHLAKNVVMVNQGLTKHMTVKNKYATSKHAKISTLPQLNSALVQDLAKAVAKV

Chk2 = Chk2 (Homo sapiens, UniProt O96017); conditions: read-out: IC50 against Chk2; cited from earlier work
Sequence of Chk2 (O96017 whole entry, species assumed): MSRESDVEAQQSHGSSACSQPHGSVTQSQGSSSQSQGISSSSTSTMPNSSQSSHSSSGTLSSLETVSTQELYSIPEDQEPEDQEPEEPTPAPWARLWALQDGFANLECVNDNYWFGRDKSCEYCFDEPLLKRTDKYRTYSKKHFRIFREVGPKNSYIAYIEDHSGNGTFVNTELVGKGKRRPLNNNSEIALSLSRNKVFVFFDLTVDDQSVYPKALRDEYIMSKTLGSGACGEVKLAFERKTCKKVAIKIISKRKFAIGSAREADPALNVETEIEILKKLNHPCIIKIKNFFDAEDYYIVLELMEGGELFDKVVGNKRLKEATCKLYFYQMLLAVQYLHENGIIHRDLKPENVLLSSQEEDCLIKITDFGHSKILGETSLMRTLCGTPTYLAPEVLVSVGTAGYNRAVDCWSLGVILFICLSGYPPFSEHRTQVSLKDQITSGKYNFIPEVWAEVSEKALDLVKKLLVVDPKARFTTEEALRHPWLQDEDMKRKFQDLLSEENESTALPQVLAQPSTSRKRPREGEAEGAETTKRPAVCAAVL

Row | Compound | IC50 (Chk1) [nM] | IC50 (PKC) [nM] | IC50 (cdc2) [nM] | IC50 (Chk2) [nM]
1 | O=C1NC(=O)c2c1c1c3ccccc3n3c1c1c2c2ccccc2n1C1CCC3O1 [SB-218078] | 15 | 1000 | 250 | 
2 | CN(C)CC(C)(C)COc1ccc2[nH]c(-c3cc(NC(=O)c4cnn(Cc5ccccc5)c4)c[nH]c3=O)cc2c1 [V158411] | 3.5 |  |  | 2.5
